Measured values reported in the supplement of paper PMC11208160.

Assay: recombinant UMI read abundance after kanamycin selection (control-corrected) (log10(CPM+1)); higher = more efficient recombination; extreme values may be limits of the assay; sequences stand for … in AGTGCAGAGAAAATCGGCCAGTTTTCTCTGCCTGCAGTCCGCATGCCGTGGGACCCCTTGGGTTCTAACCTGTTGCCTAGATTTATGCAGCGGACTGCCTTTCTCCCAAAGTGATAAACCGG…AGGTTGGTTTCACT; site = the 11-nt donor
Experimental: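 Pooled E. coli donor-specificity screen for the IS621 bridge recombinase. Each library member carries a reprogrammed 11-nt donor and a full-length LE bridge RNA expressed in cis from the natural promoter, with a paired donor-binding loop (8-nt LDG + 4-nt RDG) and a target-binding loop fixed to T5. It is co-electroporated with a T5 target plasmid; recombinase is induced with 0.07 mM IPTG and recombinants are selected on kanamycin. UMIs are counted as CPM, averaged over two biological replicates and corrected by the unselected control. Molecule = full bridge RNA written as DNA, built from the T5 scaffold: LDG = donor specificity nt 1-8, RDG = reverse complement of nt 8-11.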
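Note: IS621 bridge recombinase in Escherichia coli cells against a fixed T5 target plasmid.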

| Sequence | recombinant UMI read abundance (log10) |
| --- | --- |
| ACAGTATCATGGACCGGTTTTCCCGGTAATCCGTATTTGCA (site ACAGCATCTTA) | 0.00439 |
| ACAGTATCATGGACCGGTTTTCCCGGTAATCCGTATTTGCA (site ACAGCATCTTG) | 1.64 |
| ACAGTATCATGGACCGGTTTTCCCGGTAATCCGTATTTGCA (site ACAGCTTCTTG) | 0 |
| ACAGTATCATGGACCGGTTTTCCCGGTAATCCGTATTTGCA (site ACAGGACCTTG) | 0 |
| ACAGTATCATGGACCGGTTTTCCCGGTAATCCGTATTTGCA (site ACAGGATCTGG) | 0 |
| ACAGTATCATGGACCGGTTTTCCCGGTAATCCGTATTTGCA (site ACAGGATCTTG) | 1.01 |
| ACAGTATCATGGACCGGTTTTCCCGGTAATCCGTATTTGCA (site ACAGGATCTTT) | 0 |
| ACAGTATCATGGACCGGTTTTCCCGGTAATCCGTATTTGCA (site ACAGGGTCTTG) | 1.17 |
| ACAGTATCATGGACCGGTTTTCCCGGTAATCCGTATTTGCA (site ACAGTAACTAG) | 0 |
| ACAGTATCATGGACCGGTTTTCCCGGTAATCCGTATTTGCA (site ACAGTAACTTC) | 0.0177 |
| ACAGTATCATGGACCGGTTTTCCCGGTAATCCGTATTTGCA (site ACAGTAACTTG) | 1.55 |
| ACAGTATCATGGACCGGTTTTCCCGGTAATCCGTATTTGCA (site ACAGTACCTGG) | 0 |
| ACAGTATCATGGACCGGTTTTCCCGGTAATCCGTATTTGCA (site ACAGTACCTTG) | 0 |
| ACAGTATCATGGACCGGTTTTCCCGGTAATCCGTATTTGCA (site ACAGTACCTTT) | 0.00804 |
| ACAGTATCATGGACCGGTTTTCCCGGTAATCCGTATTTGCA (site ACAGTAGCTCG) | 0.00206 |
| ACAGTATCATGGACCGGTTTTCCCGGTAATCCGTATTTGCA (site ACAGTAGCTTA) | 0.00334 |
| ACAGTATCATGGACCGGTTTTCCCGGTAATCCGTATTTGCA (site ACAGTAGCTTG) | 0.142 |
| ACAGTATCATGGACCGGTTTTCCCGGTAATCCGTATTTGCA (site ACAGTATCTAC) | 0 |
| ACAGTATCATGGACCGGTTTTCCCGGTAATCCGTATTTGCA (site ACAGTATCTAG) | 1.81 |
| ACAGTATCATGGACCGGTTTTCCCGGTAATCCGTATTTGCA (site ACAGTATCTCA) | 0.878 |
| ACAGTATCATGGACCGGTTTTCCCGGTAATCCGTATTTGCA (site ACAGTATCTCG) | 1.77 |
| ACAGTATCATGGACCGGTTTTCCCGGTAATCCGTATTTGCA (site ACAGTATCTGG) | 2.13 |
| ACAGTATCATGGACCGGTTTTCCCGGTAATCCGTATTTGCA (site ACAGTATCTGT) | 0.00931 |
| ACAGTATCATGGACCGGTTTTCCCGGTAATCCGTATTTGCA (site ACAGTATCTTA) | 2.23 |

| Sequence | recombinant UMI read abundance (log10) |
| --- | --- |
| ACAGTATCATGGACCGGTTTTCCCGGTAATCCGTATTTGCA (site ACAGTATCTTC) | 1.17 |
| ACAGTATCATGGACCGGTTTTCCCGGTAATCCGTATTTGCA (site ACAGTATCTTG) | 2.67 |
| ACAGTATCATGGACCGGTTTTCCCGGTAATCCGTATTTGCA (site ACAGTATCTTT) | 2.17 |
| ACAGTATCATGGACCGGTTTTCCCGGTAATCCGTATTTGCA (site ACAGTCACTTG) | 2.03 |
| ACAGTATCATGGACCGGTTTTCCCGGTAATCCGTATTTGCA (site ACAGTCTCTAG) | 0 |
| ACAGTATCATGGACCGGTTTTCCCGGTAATCCGTATTTGCA (site ACAGTCTCTTC) | 0.0179 |
| ACAGTATCATGGACCGGTTTTCCCGGTAATCCGTATTTGCA (site ACAGTCTCTTG) | 2.06 |
| ACAGTATCATGGACCGGTTTTCCCGGTAATCCGTATTTGCA (site ACAGTGCCTTG) | 0.121 |
| ACAGTATCATGGACCGGTTTTCCCGGTAATCCGTATTTGCA (site ACAGTGTCTGG) | 0 |
| ACAGTATCATGGACCGGTTTTCCCGGTAATCCGTATTTGCA (site ACAGTGTCTTG) | 2.4 |
| ACAGTATCATGGACCGGTTTTCCCGGTAATCCGTATTTGCA (site ACAGTGTCTTT) | 0.0151 |
| ACAGTATCATGGACCGGTTTTCCCGGTAATCCGTATTTGCA (site ACAGTTGCTTG) | 0.0085 |
| ACAGTATCATGGACCGGTTTTCCCGGTAATCCGTATTTGCA (site ACAGTTTCTCG) | 0 |
| ACAGTATCATGGACCGGTTTTCCCGGTAATCCGTATTTGCA (site ACAGTTTCTTA) | 0.0131 |
| ACAGTATCATGGACCGGTTTTCCCGGTAATCCGTATTTGCA (site ACAGTTTCTTG) | 1.23 |
| ACAGTATCATGGACCGGTTTTCCCGGTAATCCGTATTTGCA (site ACATGATCTTG) | 1.29 |
| ACAGTATCATGGACCGGTTTTCCCGGTAATCCGTATTTGCA (site ACATTACCTTG) | 0 |
| ACAGTATCATGGACCGGTTTTCCCGGTAATCCGTATTTGCA (site ACATTATCTGG) | 0 |
| ACAGTATCATGGACCGGTTTTCCCGGTAATCCGTATTTGCA (site ACATTATCTTG) | 1.22 |
| ACAGTATCATGGACCGGTTTTCCCGGTAATCCGTATTTGCA (site ACATTATCTTT) | 0.0113 |
| ACAGTATCATGGACCGGTTTTCCCGGTAATCCGTATTTGCA (site ACATTGTCTTG) | 1.03 |
| ACAGTATCATGGACCGGTTTTCCCGGTAATCCGTATTTGCA (site ACCATATCTTG) | 1.91 |
| ACAGTATCATGGACCGGTTTTCCCGGTAATCCGTATTTGCA (site ACCGAATCTTG) | 0 |
| ACAGTATCATGGACCGGTTTTCCCGGTAATCCGTATTTGCA (site ACCGTAACTTG) | 0.0063 |

| Sequence | recombinant UMI read abundance (log10) |
| --- | --- |
| ACAGTATCATGGACCGGTTTTCCCGGTAATCCGTATTTGCA (site ACCGTATCTAG) | 0.0104 |
| ACAGTATCATGGACCGGTTTTCCCGGTAATCCGTATTTGCA (site ACCGTATCTTC) | 0.00762 |
| ACAGTATCATGGACCGGTTTTCCCGGTAATCCGTATTTGCA (site ACCGTATCTTG) | 1.82 |
| ACAGTATCATGGACCGGTTTTCCCGGTAATCCGTATTTGCA (site ACCGTCTCTTG) | 1.39 |
| ACAGTATCATGGACCGGTTTTCCCGGTAATCCGTATTTGCA (site ACGCTATCTTG) | 1.16 |
| ACAGTATCATGGACCGGTTTTCCCGGTAATCCGTATTTGCA (site ACGGCATCTTG) | 0 |
| ACAGTATCATGGACCGGTTTTCCCGGTAATCCGTATTTGCA (site ACGGTAGCTTG) | 0.0044 |
| ACAGTATCATGGACCGGTTTTCCCGGTAATCCGTATTTGCA (site ACGGTATCTCG) | 0.00452 |
| ACAGTATCATGGACCGGTTTTCCCGGTAATCCGTATTTGCA (site ACGGTATCTTA) | 0.00481 |
| ACAGTATCATGGACCGGTTTTCCCGGTAATCCGTATTTGCA (site ACGGTATCTTG) | 0.0156 |
| ACAGTATCATGGACCGGTTTTCCCGGTAATCCGTATTTGCA (site ACGGTTTCTTG) | 0.0105 |
| ACAGTATCATGGACCGGTTTTCCCGGTAATCCGTATTTGCA (site ACTGGATCTTG) | 0 |
| ACAGTATCATGGACCGGTTTTCCCGGTAATCCGTATTTGCA (site ACTGTACCTTG) | 0 |
| ACAGTATCATGGACCGGTTTTCCCGGTAATCCGTATTTGCA (site ACTGTATCTGG) | 0.00893 |
| ACAGTATCATGGACCGGTTTTCCCGGTAATCCGTATTTGCA (site ACTGTATCTTG) | 2.31 |
| ACAGTATCATGGACCGGTTTTCCCGGTAATCCGTATTTGCA (site ACTGTATCTTT) | 0.00405 |
| ACAGTATCATGGACCGGTTTTCCCGGTAATCCGTATTTGCA (site ACTGTGTCTTG) | 1.26 |
| ACAGTATCATGGACCGGTTTTCCCGGTAATCCGTATTTGCA (site ACTTTATCTTG) | 1.44 |
| ACAGTATCATGGACCGGTTTTCCCGGTAATCCGTATTTGCA (site AGAGGATCTTG) | 0.0328 |
| ACAGTATCATGGACCGGTTTTCCCGGTAATCCGTATTTGCA (site AGAGTACCTTG) | 0 |
| ACAGTATCATGGACCGGTTTTCCCGGTAATCCGTATTTGCA (site AGAGTATCTGG) | 0.0344 |
| ACAGTATCATGGACCGGTTTTCCCGGTAATCCGTATTTGCA (site AGAGTATCTTG) | 2.46 |
| ACAGTATCATGGACCGGTTTTCCCGGTAATCCGTATTTGCA (site AGAGTATCTTT) | 0.0042 |
| ACAGTATCATGGACCGGTTTTCCCGGTAATCCGTATTTGCA (site AGAGTGTCTTG) | 1.6 |
